Values joined by “and” are separate entries in the source; they are usually repeats but may differ in a detail not shown here. Equal values may be shown once.
Columns and labels:
[1] = tested on: skin blemishes caused by cellulite and localised adiposity; assay: Plicometry: skin plica thickness measured with a plicometer, dermatological test of the cosmetic gel; assay type: in vivo, female volunteers; set-up: RIGHT PLICOMETRY 1/3 T0 / RIGHT PLICOMETRY 3/3 T15 / RIGHT PLICOMETRY 3/3 T30 / RIGHT PLICOMETRY 3/3 T60 / RIGHT PLICOMETRY 1/3 T15 / RIGHT PLICOMETRY 1/3 T30 / RIGHT PLICOMETRY 1/3 T60 / RIGHT PLICOMETRY 2/3 T0 / RIGHT PLICOMETRY 2/3 T15 / RIGHT PLICOMETRY 2/3 T30 / RIGHT PLICOMETRY 2/3 T60 / RIGHT PLICOMETRY 3/3 T0 / LEFT PLICOMETRY 1/3 T0 / LEFT PLICOMETRY 3/3 T15 / LEFT PLICOMETRY 3/3 T30 / LEFT PLICOMETRY 3/3 T60 / LEFT PLICOMETRY 1/3 T30 / LEFT PLICOMETRY 1/3 T60 / LEFT PLICOMETRY 2/3 T0 / LEFT PLICOMETRY 2/3 T15 / LEFT PLICOMETRY 2/3 T30 / LEFT PLICOMETRY 2/3 T60 / LEFT PLICOMETRY 3/3 T0: unit not given beside the values
Method: (§1) A dermatological test was carried out on 25 female volunteers between 18 and 65 years of age, with the backing of the Department of Physiological and Pharmacological Sciences of the university of Pavia. The investigation aimed to check the modification of three anatomical-physiological parameters, qualifying the unaesthetic-functional aspect connected to the manifestation of so-called cellulite and subcutaneous hypertriglyceridaemia: measurement of the skin folds, measurement of the circumference of the thighs, thermographic skin measurement.
(§2) The test stretched out over 60 days with the continual daily application of the aforementioned preparation of cosmetic gel. The measurements were carried out after 15, 30 and 60 days. The detail of the test protocol and of the results obtained is shown hereafter.
25 female volunteers aged between 18 and 65, with the presence of skin blemishes caused by cellulite and localised adiposity, were selected according to the following criteria: good general state of health, absence of skin pathologies, not being under medication, commitment not to vary the normal daily routine, no medical history of atopy.
The samples were tested by uniformly applying them on “Glute SX Glute DJ (Femoris Posto SX Femoris Posto DX Femoris Ant. SX Femoris Ant. DX” every day at least once per day for the entire duration of the test.
At the time of inclusion in the study and during the subsequent checks after 15 days (T15), after 30 days (T30) and after 60 days (T60) of treatment the following instrumental measurements were taken: • plicometry (through a plicometer) • thigh circumference (through a measuring tape broken into millimetres) • contact thermography (through liquid crystal thermographic plates).
In particular, the plicometer used in the test constitutes the suitable instrument for measuring the skin plica thickness. Skin plicometry provides numerical data of particular use when the panniculopathic process of the cellulite is associated with localised adiposity.

[2] = tested on: skin blemishes deriving from cellulite and from localised adiposity; assay: Overall evaluation of the efficiency of the cosmetic product adjuvating the reduction of skin blemishes; assay type: in vivo, female volunteers; settings: versus just carnitine (II) and just hydroxy citric acid (III) in the same tests
Method: as §1, §2
Evaluation of the Efficiency of a Cosmetic Product Adjuvating the Reduction of the Skin Blemishes Deriving from Cellulite and from Localised Adiposity.
The present experimentation allows it to be evaluated whether the cosmetic product being studied carries out an action adjuvating the reduction of the skin blemishes deriving from cellulite and from localised adiposity. […]

[3] = MEDIA of 25 volunteers, T0 at inclusion, before treatment
[4] = MEDIA of 25 volunteers, after 15 days of daily gel application
[5] = MEDIA of 25 volunteers, after 30 days of daily gel application
[6] = MEDIA of 25 volunteers, after 60 days of daily gel application
[7] = individual volunteer, T0 at inclusion, before treatment
[8] = individual volunteer, after 15 days of daily gel application
[9] = individual volunteer, after 30 days of daily gel application
[10] = individual volunteer, after 60 days of daily gel application

carnitine hydroxycitrate [carnitine hydroxy citrate]
LEFT PLICOMETRY 1/3 T0, MEDIA [1, 3]: 25.7
LEFT PLICOMETRY 2/3 T0, MEDIA [1, 3]: 29.6
LEFT PLICOMETRY 3/3 T0, MEDIA [1, 3]: 31.2
RIGHT PLICOMETRY 1/3 T0, MEDIA [1, 3]: 25.7
RIGHT PLICOMETRY 2/3 T0, MEDIA [1, 3]: 30.9
RIGHT PLICOMETRY 3/3 T0, MEDIA [1, 3]: 33.0
LEFT PLICOMETRY 1/3 T15, MEDIA [1, 4]: 25.3
LEFT PLICOMETRY 2/3 T15, MEDIA [1, 4]: 28.9
LEFT PLICOMETRY 3/3 T15, MEDIA [1, 4]: 30.6
RIGHT PLICOMETRY 1/3 T15, MEDIA [1, 4]: 24.4
RIGHT PLICOMETRY 2/3 T15, MEDIA [1, 4]: 29.6
RIGHT PLICOMETRY 3/3 T15, MEDIA [1, 4]: 32.3
LEFT PLICOMETRY 1/3 T30, MEDIA [1, 5]: 23.5
LEFT PLICOMETRY 2/3 T30, MEDIA [1, 5]: 27.3
LEFT PLICOMETRY 3/3 T30, MEDIA [1, 5]: 29.1
RIGHT PLICOMETRY 1/3 T30, MEDIA [1, 5]: 23.4
RIGHT PLICOMETRY 2/3 T30, MEDIA [1, 5]: 28.3
RIGHT PLICOMETRY 3/3 T30, MEDIA [1, 5]: 30.9
LEFT PLICOMETRY 1/3 T60, MEDIA [1, 6]: 22.5
LEFT PLICOMETRY 2/3 T60, MEDIA [1, 6]: 26.6
LEFT PLICOMETRY 3/3 T60, MEDIA [1, 6]: 28.2
RIGHT PLICOMETRY 1/3 T60, MEDIA [1, 6]: 22.7
RIGHT PLICOMETRY 2/3 T60, MEDIA [1, 6]: 27.7
RIGHT PLICOMETRY 3/3 T60, MEDIA [1, 6]: 29.9
LEFT PLICOMETRY 1/3 T0 [1, 7]: 23.3 and 17.8 and 35.9 and 24.9 (2×) and 21.1 and 25.9 and 19.8 and 26.7 and 26.0 and 31.1 and 26.6 and 19.7 and 22.9 (2×) and 24.6 and 32.8 and 28.1 and 24.0 and 30.8 and 27.9 and 22.8 and 34.6 and 16.8 and 30.5
LEFT PLICOMETRY 2/3 T0 [1, 7]: 28.7 and 22.6 and 38.8 and 24.8 and 27.1 and 28.9 and 28.1 and 40.9 and 33.9 and 30.8 and 27.6 and 24.3 and 27.8 and 20.6 and 31.8 and 29.9 and 22.9 and 27.2 and 25.4 and 35.4 and 39.7 and 25.3 and 41.6 and 23.5 and 32.5
LEFT PLICOMETRY 3/3 T0 [1, 7]: 34.9 and 21.8 and 37.9 and 27.8 and 30.8 and 33.3 and 26.8 and 41.6 and 28.1 and 35.9 (2×) and 35.3 and 20.6 and 33.5 (2×) and 20.1 and 20.3 and 37.2 and 17.8 and 34.1 and 41.5 and 22.9 and 40.9 and 28.9 and 38.1
RIGHT PLICOMETRY 1/3 T0 [1, 7]: 30.5 and 23.3 and 17.8 and 35.9 and 24.9 (2×) and 21.1 and 25.9 and 19.8 and 26.7 and 26.0 and 31.1 and 26.6 and 19.7 and 22.9 (2×) and 24.6 and 32.8 and 28.1 and 24.0 and 30.8 and 27.9 and 22.8 and 34.6 and 16.8
RIGHT PLICOMETRY 2/3 T0 [1, 7]: 37.2 and 30.8 and 26.7 and 32.8 and 20.9 and 29.2 and 36.8 and 26.3 and 34.9 and 35.5 and 33.5 and 29.7 and 24.8 and 29.9 and 22.4 and 31.2 and 33.7 and 27.7 and 26.8 and 25.3 and 37.8 and 41.5 and 28.8 and 39.8 and 27.0
RIGHT PLICOMETRY 3/3 T0 [1, 7]: 40.1 and 41.6 and 25.9 and 32.7 and 29.9 (2×) and 33.8 and 37.1 and 39.8 and 40.6 and 37.7 and 36.8 (2×) and 28.8 and 29.4 and 25.6 and 32.3 and 39.9 and 22.3 and 19.8 and 35.1 and 42.6 and 22.9 and 36.2 and 26.8
LEFT PLICOMETRY 1/3 T15 [1, 8]: 22.6 (3×) and 17.1 and 35.2 and 24.2 (2×) and 20.4 and 25.2 and 19.1 and 26.0 and 25.3 and 30.4 and 27.2 and 19.6 and 23.9 and 32.9 and 27.4 and 24.6 and 30.6 and 27.8 and 22.8 and 33.9 and 16.1 and 29.8
LEFT PLICOMETRY 2/3 T15 [1, 8]: 28.0 and 21.9 and 38.1 and 24.1 and 26.4 and 28.2 and 27.4 and 40.2 and 33.2 and 30.1 and 26.9 and 23.6 and 27.1 and 19.9 and 31.1 and 29.2 and 22.2 and 26.5 and 24.7 and 34.7 and 39.0 and 24.6 and 40.9 and 22.8 and 31.8
LEFT PLICOMETRY 3/3 T15 [1, 8]: 34.3 and 21.2 and 37.3 and 27.2 and 30.2 and 32.7 and 26.2 and 41.0 and 27.5 and 35.3 (2×) and 34.7 and 20.0 and 32.9 (2×) and 19.5 and 19.7 and 36.6 and 17.2 and 33.5 and 40.9 and 22.3 and 40.3 and 28.3 and 37.5
RIGHT PLICOMETRY 1/3 T15 [1, 8]: 29.0 and 22.0 and 16.5 and 34.5 and 23.5 (2×) and 19.6 and 24.5 and 18.4 and 25.3 and 24.2 and 30.0 and 27.1 and 19.5 and 23.0 and 23.2 and 31.0 and 20.3 and 26.7 and 22.6 and 29.4 and 26.5 and 21.4 and 33.2 and 15.4
RIGHT PLICOMETRY 2/3 T15 [1, 8]: 35.7 and 28.5 and 25.2 and 30.8 and 19.4 and 27.7 and 35.3 and 24.8 (2×) and 33.4 and 34.0 and 32.0 and 27.3 (2×) and 23.0 and 29.6 and 20.9 and 31.5 and 32.2 and 27.8 and 25.3 and 38.1 and 40.0 and 37.3 and 27.0
RIGHT PLICOMETRY 3/3 T15 [1, 8]: 40.0 (2×) and 24.9 and 31.7 and 28.9 (2×) and 32.8 and 37.5 and 39.6 and 39.8 and 37.8 and 35.9 and 28.2 and 28.4 and 26.1 and 32.0 and 38.9 and 21.3 and 37.0 and 18.8 and 34.1 and 41.6 and 21.9 and 34.9 and 25.8
LEFT PLICOMETRY 1/3 T30 [1, 9]: 21.0 and 15.5 and 33.6 and 22.6 and 18.8 and 23.6 and 17.5 and 24.4 and 23.7 and 28.8 and 24.3 and 17.4 and 20.6 and 22.3 and 30.5 and 23.5 and 20.2 and 25.8 and 23.8 and 28.5 and 25.6 and 21.6 and 32.3 and 14.5 and 28.2
LEFT PLICOMETRY 2/3 T30 [1, 9]: 26.4 and 20.3 and 36.5 and 22.5 and 24.8 and 26.6 and 25.8 and 38.6 and 31.6 and 28.5 and 25.3 and 22.0 and 25.5 and 18.3 and 29.5 and 27.6 and 20.6 and 24.9 and 23.0 (2×) and 33.5 and 37.4 and 39.3 and 21.2 and 30.2
LEFT PLICOMETRY 3/3 T30 [1, 9]: 32.8 and 19.7 and 35.8 and 25.7 and 28.7 and 31.2 and 24.7 and 39.5 and 26.0 and 33.8 (2×) and 33.2 and 18.5 (2×) and 31.4 (2×) and 18.2 and 35.1 and 15.7 and 32.0 and 39.4 and 20.8 and 38.8 and 26.8 and 36.0
RIGHT PLICOMETRY 1/3 T30 [1, 9]: 28.2 and 18.9 and 15.5 and 33.2 and 22.4 and 18.8 and 23.6 and 17.5 and 24.4 and 24.2 and 28.8 and 26.5 and 17.4 and 22.7 and 21.8 and 31.2 and 22.6 and 20.5 (2×) and 25.8 and 21.7 and 27.6 and 24.3 and 32.5 and 14.5
RIGHT PLICOMETRY 2/3 T30 [1, 9]: 34.6 and 28.2 and 24.0 and 30.2 and 18.2 and 25.4 (2×) and 34.0 and 23.7 and 33.5 and 32.9 and 30.0 and 27.6 and 21.7 and 26.5 and 20.0 and 30.8 and 31.0 and 23.9 and 22.3 and 38.1 and 40.0 and 26.2 and 35.6 and 24.3
RIGHT PLICOMETRY 3/3 T30 [1, 9]: 40.2 and 39.9 and 23.6 and 30.4 and 27.6 (2×) and 31.5 and 36.9 and 38.4 and 38.5 and 36.2 and 33.6 and 26.3 and 26.5 and 23.7 and 31.2 and 37.6 and 19.6 and 36.4 and 17.5 and 30.5 and 39.8 and 20.4 and 34.0 and 25.6
LEFT PLICOMETRY 1/3 T60 [1, 10]: 20.5 and 15.0 and 30.9 and 22.1 (2×) and 18.3 and 23.1 and 17.0 and 23.9 (2×) and 23.2 and 27.6 and 23.6 and 16.5 and 18.4 and 21.2 and 30.5 and 19.8 and 25.3 and 20.7 and 26.2 and 21.5 and 30.4 and 14.0 and 27.7
LEFT PLICOMETRY 2/3 T60 [1, 10]: 25.7 and 19.6 and 35.8 and 21.8 and 24.1 and 25.9 and 25.1 and 37.9 and 30.9 and 27.8 and 24.6 and 21.3 and 24.8 and 17.6 and 28.8 and 26.9 and 19.9 and 24.2 and 22.4 and 32.4 and 36.7 and 22.3 and 38.6 and 20.5 and 29.5
LEFT PLICOMETRY 3/3 T60 [1, 10]: 31.9 and 18.8 and 34.9 and 24.8 and 27.8 and 30.3 and 23.8 and 38.6 and 25.1 and 33.2 and 32.3 and 17.6 and 29.6 and 17.2 and 30.5 and 32.9 and 18.5 and 34.2 and 14.8 and 31.0 and 38.5 and 19.9 and 37.9 and 25.9 and 35.1
RIGHT PLICOMETRY 1/3 T60 [1, 10]: 27.5 and 20.5 and 15.0 and 32.1 and 22.0 and 17.8 and 23.0 and 16.7 (2×) and 23.7 and 24.6 and 27.6 and 26.6 and 21.5 and 21.7 and 28.9 and 21.4 and 18.4 and 24.1 and 21.3 and 28.0 and 23.9 and 19.9 and 31.7 and 13.8
RIGHT PLICOMETRY 2/3 T60 [1, 10]: 34.0 and 26.3 and 23.2 and 29.4 and 17.3 and 26.0 and 32.8 and 23.5 and 33.6 and 32.1 and 30.0 and 26.5 and 20.9 and 26.7 and 20.0 and 27.8 and 29.7 and 25.6 (2×) and 23.9 and 21.8 and 37.7 and 40.0 and 35.3 and 23.8
RIGHT PLICOMETRY 3/3 T60 [1, 10]: 38.9 and 37.4 (2×) and 22.3 (2×) and 29.4 and 27.0 and 32.1 and 35.2 and 36.8 and 26.9 and 35.6 and 33.2 (2×) and 25.3 and 26.6 and 29.5 and 35.4 and 18.2 and 34.1 and 17.0 and 30.9 and 39.8 and 19.7 and 23.7
Comparison of the salt with the two reactants by themselves [2]: provides the best results
